# PMC3534213, “γ-Secretase Modulators: Can We Combine Potency with Safety?” (International Journal of Alzheimer's Disease, 2012)
# Columns and labels:
# [1] = set-up: method as in PMID 22468891; conditions: Phase III clinical trials; cited from earlier work
# [2] = cited from earlier work
# CSF Aβ42 [3] = test system: CSF Aβ42; set-up: method as in PMID 22072214; conditions: dog, single dose of 80 mg/kg; cited from earlier work
# plasma Aβ42 = test system: plasma Aβ42; set-up: method as in earlier work; conditions: human, 400 mg dose; cited from earlier work
# [4] = set-up: method as in earlier work; conditions: high-dose group, rats; cited from earlier work
# plaque load = test system: plaque load; set-up: method as in PMID 21232036; conditions: chronic treatment of transgenic mice, exposure below concentrations required for Aβ42 reduction after a single dose; cited from earlier work
# [5] = set-up: method as in PMID 22072214; conditions: repeated dosing in rat and dog; cited from earlier work
# [6] = Free fraction in brain (brain tissue binding, Fub); assay type: in vitro ADME
# [7] = Free fraction in plasma (plasma protein binding); assay type: in vitro ADME
# brain Aβ42 = test system: brain Aβ42; set-up: method as in PMID 22429469; conditions: 100 mg/kg oral dose; cited from earlier work
# CSF Aβ42 [8] = experiment: Dog model combining PK/PD data with early observations of liver toxicity; assay type: in vivo; conditions: 20 mg/kg p.o.
# Experimental: (§1) For the cellular in vitro activity of our own compounds, screening was carried out using SKNBE2 human neuroblastoma cells carrying the hAPP 695 wild-type as described in [15]. For a description of the mouse in vivo experiments, see references; for details on the dog in vivo experiments, see [17].
# (§2) Both compounds have been tested in advanced animal models, including repeated dosing in rat and dog. […] Based on these findings, further development was halted. Since then, the dog model combining PK/PD data with early observations of liver toxicity is routinely used in our discovery program to triage compounds [17]. Both JNJ-40418677 and JNJ-42601572 contain a considerable number of conjugated aromatic rings and are characterized by high lipophilicity and molecular weight. In recent years a number of publications have appeared relating such properties with a low probability of success in clinical development. Catchy phrases like “molecular obesity” and “escape from flatland” have been used to describe the issues associated with high molecular weight and number of (hetero) aromatic rings in molecules. Based on analysis of compound properties and their attrition or success in (pre)clinical development, guidelines have been formulated and proposed which can be applied during optimization efforts in medicinal chemistry programs to strive towards more drug-like compounds. The concept of ligand efficiency (LE) is now routinely applied in the drug discovery process. It is defined as the binding energy towards a biological target per (heavy = nonhydrogen) atom in a compound. Since most assays are not directly measuring binding energy, IC50 values are often used to make a relative comparison of the LE of compounds. By working towards a high LE, molecular weight can be kept in control while optimizing pharmacological activity. […]
# [9] = as above; assay type: in vivo
# Experimental: as §1, §2
# γ-secretase = molecular target: T1, γ-secretase (Homo sapiens, UniProt P49768); experiment: Cellular Aβ42 lowering in SKNBE2 human neuroblastoma cells carrying hAPP 695 wild-type; assay type: cell-based; conditions: cellular assay, determined internally
# T1 construct: screening was carried out using SKNBE2 human neuroblastoma cells carrying the hAPP 695 wild-type; endogenous in cells; host or cells: SKNBE2 human neuroblastoma cells carrying hAPP 695 wild-type
# [10] = Limited tolerance study in rats; assay type: in vivo; conditions: two-week daily dose of 200 mg/kg
smiles,measurement,setting,value
"CC(C)[C@H](O)C(=O)N[C@@H](C)C(=O)N[C@@H]1C(=O)N(C)CCc2ccccc21 [Compound 1, semagacestat]",effect on cognition,[1],statistically significant decline in cognition
same,risk of skin cancer,[1],increased risk of skin cancer
"C[C@@H](C(=O)O)c1ccc(-c2ccccc2)c(F)c1 [Compound 2, tarenflurbil]",tolerability in clinical trials,[2]; high dosage,well tolerated
same,phase III clinical trial outcome,[2]; phase III,negative results
COc1cc(/C=C2\CCCN([C@@H](C)c3ccc(F)cc3)C2=O)ccc1-n1cnc(C)c1 [Compound 3],gene-expression profile in liver tissue,CSF Aβ42 [3],large changes in gene-expression profile
same,liver parameters,CSF Aβ42 [3],liver parameter changes
same,maximum reduction of plasma Aβ42 levels,plasma Aβ42,~ 50%
same,lenticular opacity,[4],lenticular opacity was observed
CC(C)C[C@H](C(=O)O)c1cc(-c2ccc(C(F)(F)F)cc2)cc(-c2ccc(C(F)(F)F)cc2)c1 [Compound 4],effect on plaque load,plaque load,preventive effect on plaque load
same,liver toxicity signs (bilirubin and ALT/AST increases),[5],early signs of liver toxicity were noted
same,fraction unbound,[6],< 0.001
same,fraction unbound,[7],< 0.001
COc1nc(C(=O)N[C@H]2COc3ccc(Cl)c(F)c32)ccc1-n1cnc(C)c1 [Compound 15],lowering of Aβ42 levels in Guinea pig brain,brain Aβ42,36%
COc1nc(-c2nc3n(n2)CCO[C@H]3c2ccccc2OC(F)(F)F)ccc1-n1cnc(C)c1 [Compound 16],fraction unbound,[6],0.039
same,bilirubin or ALT levels,CSF Aβ42 [8],no increases in bilirubin or ALT levels were observed
same,concentration at 4 h,"[9]; CSF, 20 mg/kg oral, 4 h, read-out: CSF compound concentration",0.524 ± 0.062 µM
same,Cmax,"[9]; plasma, po, 20 mg/kg",24 ± 3 µM
same,IC50,γ-secretase,56 nM
same,signs of liver toxicity,[10],did not lead to overt signs of liver toxicity
